Source: publication PMC8016788 (Clinical Pharmacokinetics, 2021)
Read-outs that look alike come from different tables or passages of the source.

Assays:
[1] = 10 mg
clinical = details: human, plasma, oral, 10 mg
[2] = test system: patients with non-diabetic kidney disease; details: primary result of the DIAMOND trial; cited from earlier work
[3] = patients with type 2 diabetes and chronic kidney disease; model of van der Walt et al.; cited from earlier work

For `CCOc1ccc(Cc2cc([C@@H]3O[C@H](CO)[C@@H](O)[C@H](O)[C@H]3O)ccc2Cl)cc1` [dapagliflozin], the “Predicted median AUC0–inf” value ([1]; participants of 50 kg with mGFR 50 mL/min/1.73 m^2) was 1100.3 (1016.1–1204.1) ng h/mL, the “Predicted median AUC0–inf” value ([1]; participants of 70 kg with mGFR 15 mL/min/1.73 m^2) was 1566.1 (1348.4–1855.4) ng h/mL and the “Predicted median AUC0–inf” value ([1]; participants of 70 kg with mGFR 90 mL/min/1.73 m^2) was 539.2 (483.5–600.4) ng h/mL. The “Predicted median AUC0–inf” value ([1]; participants of 150 kg with mGFR 50 mL/min/1.73 m^2) was 483.0 (445.5–527.8) ng h/mL, the AUC(0-inf) (clinical) was 741 ng·h/mL and the Vd/F (clinical) was 44.9 L. For the same compound, the “Effect on proteinuria in the DIAMOND trial” value [2] was “did not decrease proteinuria” and the Apparent clearance [3] was “approximately 10.5 L/h”.
